Reference: US10577363B2, “Substituted piperidine compounds” (EPIZYME, INC., priority 2014, dated 2020)

Legend:
SMYD3 [1] = target: T1, SMYD3 (Homo sapiens (Human), UniProt Q9H7B4); assay: SMYD3 biochemical assay (SPA, 3H-SAM methylation of MEKK2 protein substrate); settings: Table 2A; read-out: SMYD3 Biochem IC50
Summary of the method: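 Tritium incorporation into GST-MEKK2 is counted by scintillation proximity after citric acid bead capture. Native human SMYD3 is preincubated with test compound for 30 min at room temperature at pH 8.0 (Tris-Cl, TCEP, BSG, Tween 20) before 3H-SAM and substrate are added; cold SAM at 100 uM final stops turnover.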

SMYD3 [2] = target: T1, SMYD3; assay: SMYD3 cell assay (Trimethyl-MEKK2 In-Cell Western in 293T/17 cells); type: cell-based; settings: Table 2A; read-out: SMYD3 Cell IC50
Summary of the method: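 In-Cell Western ratio of trimethyl-Lys260 MEKK2 to anti-flag signal; percent inhibition from DMSO and maximum-inhibition controls, IC50 by non-linear regression, triplicates.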

T1 sequence (Q9H7B4 whole entry): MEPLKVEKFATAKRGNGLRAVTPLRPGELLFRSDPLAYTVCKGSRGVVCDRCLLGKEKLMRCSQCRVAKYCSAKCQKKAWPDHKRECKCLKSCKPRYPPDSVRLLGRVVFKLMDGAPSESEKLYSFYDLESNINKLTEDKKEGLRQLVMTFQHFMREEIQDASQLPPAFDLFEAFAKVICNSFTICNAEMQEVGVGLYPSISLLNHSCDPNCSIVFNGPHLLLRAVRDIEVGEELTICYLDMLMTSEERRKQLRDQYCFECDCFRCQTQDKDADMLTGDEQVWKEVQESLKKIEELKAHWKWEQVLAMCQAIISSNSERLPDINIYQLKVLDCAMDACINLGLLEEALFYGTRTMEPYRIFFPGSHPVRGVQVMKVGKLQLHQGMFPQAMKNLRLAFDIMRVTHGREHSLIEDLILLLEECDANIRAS

## O=C(N[C@H]1C[C@H]2CC[C@@H](C1)N2S(=O)(=O)N1CC2(CNC2)C1)c1cc(C2CC2)on1 [compound 580, N-((1R,3r,5S)-8-((2,6-diazaspiro[3.3]heptan-2-yl)sulfonyl)-8-azabicyclo[3.2.1]octan-3-yl)-5-cyclopropylisoxazole-3-carboxamide]
SMYD3 [1]
  IC50: 9.7 nM
SMYD3 [2]
  IC50: 88.9 nM

## CC(C)NC1CCN(S(=O)(=O)N2CC[C@H](NC(=O)c3cc(C4CC4)on3)C[C@@H]2C)CC1 [compound 581, 5-cyclopropyl-N-((2S,4S)-1-((4-(isopropylamino)piperidin-1-yl)sulfonyl)-2-methylpiperidin-4-yl)isoxazole-3-carboxamide]
SMYD3 [1]
  IC50: 10.1 nM
SMYD3 [2]
  IC50: 143 nM

## CN1C2CC1CN(S(=O)(=O)N1[C@@H]3CC[C@H]1C[C@@H](NC(=O)c1cc(C4CC4)on1)C3)C2 [compound 582, 5-cyclopropyl-N-((1R,3r,5S)-8-((6-methyl-3,6-diazabicyclo[3.1.1]heptan-3-yl)sulfonyl)-8-azabicyclo[3.2.1]octan-3-yl)isoxazole-3-carboxamide]
SMYD3 [1]
  IC50: 10.1 nM
SMYD3 [2]
  IC50: 151 nM

## COCCN1CCC(CS(=O)(=O)N2CC[C@@H](NC(=O)c3cc(C4CC4)on3)C[C@H]2C)CC1 [compound 583, 5-cyclopropyl-N-((2R,4R)-1-(((1-(2-methoxyethyl)piperidin-4-yl)methyl)sulfonyl)-2-methylpiperidin-4-yl)isoxazole-3-carboxamide]
SMYD3 [1]
  IC50: 10.4 nM
SMYD3 [2]
  IC50: 234 nM

## CC[C@H]1CN(S(=O)(=O)N2CC[C@H](NC(=O)c3cc(C4CC4)on3)C[C@@H]2C)CCN1 [compound 584, 5-cyclopropyl-N-((2S,4S)-1-(((S)-3-ethylpiperazin-1-yl)sulfonyl)-2-methylpiperidin-4-yl)isoxazole-3-carboxamide]
SMYD3 [1]
  IC50: 10.5 nM
SMYD3 [2]
  IC50: 159 nM

## C[C@H]1C[C@@H](NC(=O)c2cc(C3CC3)on2)CCN1S(=O)(=O)N1CCCNCC1 [compound 585, N-((2S,4S)-1-((1,4-diazepan-1-yl)sulfonyl)-2-methylpiperidin-4-yl)-5-cyclopropylisoxazole-3-carboxamide]
SMYD3 [1]
  IC50: 10.6 nM
SMYD3 [2]
  IC50: 186 nM

## CN(CCN)CCCS(=O)(=O)N1[C@@H]2CC[C@H]1C[C@@H](NC(=O)c1cc(C3CC3)on1)C2 [compound 586, N-((1R,3r,5S)-8-((3-((2-aminoethyl)(methyl)amino)propyl)sulfonyl)-8-azabicyclo[3.2.1]octan-3-yl)-5-cyclopropylisoxazole-3-carboxamide]
SMYD3 [1]
  IC50: 10.7 nM
SMYD3 [2]
  IC50: 263 nM

## C[C@H]1C[C@@H](NC(=O)c2cc(C3CC3)on2)CCN1S(=O)(=O)CC1CCN(CCN2CCOCC2)CC1 [compound 587, 5-cyclopropyl-N-((2S,4S)-2-methyl-1-(((1-(2-morpholinoethyl)piperidin-4-yl)methyl)sulfonyl)piperidin-4-yl)isoxazole-3-carboxamide]
SMYD3 [1]
  IC50: 10.7 nM
SMYD3 [2]
  IC50: 311 nM

## C[C@H]1C[C@@H](NC(=O)c2cc(C3CC3)on2)CCN1S(=O)(=O)N1CC2CC(C1)N2 [compound 588, N-((2S,4S)-1-((3,6-diazabicyclo[3.1.1]heptan-3-yl)sulfonyl)-2-methylpiperidin-4-yl)-5-cyclopropylisoxazole-3-carboxamide]
SMYD3 [1]
  IC50: 10.8 nM
SMYD3 [2]
  IC50: 151 nM

## C[C@@H]1C[C@H](NC(=O)c2cc(C3CC3)on2)CCN1S(=O)(=O)CC1CCN(CCO)CC1 [compound 589, 5-cyclopropyl-N-((2R,4R)-1-(((1-(2-hydroxyethyl)piperidin-4-yl)methyl)sulfonyl)-2-methylpiperidin-4-yl)isoxazole-3-carboxamide]
SMYD3 [1]
  IC50: 10.9 nM
SMYD3 [2]
  IC50: 152 nM

## CN(C)CCNCCCS(=O)(=O)N1[C@@H]2CC[C@H]1C[C@@H](NC(=O)c1cc(C3CC3)on1)C2 [compound 590, 5-cyclopropyl-N-((1R,3r,5S)-8-((3-((2-(dimethylamino)ethyl)amino)propyl)sulfonyl)-8-azabicyclo[3.2.1]octan-3-yl)isoxazole-3-carboxamide]
SMYD3 [1]
  IC50: 10.9 nM
SMYD3 [2]
  IC50: 175 nM

## CNCCCS(=O)(=O)N1[C@@H]2CC[C@H]1C[C@@H](NC(=O)c1cc(C3CC3)on1)C2 [compound 591, 5-cyclopropyl-N-((1R,3r,5S)-8-((3-(methylamino)propyl)sulfonyl)-8-azabicyclo[3.2.1]octan-3-yl)isoxazole-3-carboxamide]
SMYD3 [1]
  IC50: 11.1 nM
SMYD3 [2]
  IC50: 150 nM

## C[C@H]1C[C@@H](NC(=O)c2cc(C3CC3)on2)CCN1S(=O)(=O)N1C[C@@H]2C[C@H]1CN2C [compound 592, 5-cyclopropyl-N-((2S,4S)-2-methyl-1-(((1S,4S)-5-methyl-2,5-diazabicyclo[2.2.1]heptan-2-yl)sulfonyl)piperidin-4-yl)isoxazole-3-carboxamide]
SMYD3 [1]
  IC50: 11.6 nM
SMYD3 [2]
  IC50: 106 nM

## CN(C)CCCS(=O)(=O)N1[C@@H]2CC[C@H]1C[C@@H](NC(=O)c1cc(C3CC3)on1)C2 [compound 593, 5-cyclopropyl-N-((1R,3r,5S)-8-((3-(dimethylamino)propyl)sulfonyl)-8-azabicyclo[3.2.1]octan-3-yl)isoxazole-3-carboxamide]
SMYD3 [1]
  IC50: 11.8 nM
SMYD3 [2]
  IC50: 147 nM

## O=C(N[C@H]1C[C@H]2CC[C@@H](C1)N2S(=O)(=O)NC1CC2(CNC2)C1)c1cc(C2CC2)on1 [compound 594, N-((1R,3r,5S)-8-(N-(2-azaspiro[3.3]heptan-6-yl)sulfamoyl)-8-azabicyclo[3.2.1]octan-3-yl)-5-cyclopropylisoxazole-3-carboxamide]
SMYD3 [1]
  IC50: 12 nM
SMYD3 [2]
  IC50: 669 nM

## C[C@@H]1CN(S(=O)(=O)N2CCNCC2)[C@H](C)C[C@@H]1NC(=O)c1cc(C2CC2)on1 [compound 595, 5-cyclopropyl-N-((2R,4S,5R)-2,5-dimethyl-1-(piperazin-1-ylsulfonyl)piperidin-4-yl)isoxazole-3-carboxamide]
SMYD3 [1]
  IC50: 12.6 nM
SMYD3 [2]
  IC50: 77.8 nM

## NCCNCCS(=O)(=O)N1[C@@H]2CC[C@H]1C[C@@H](NC(=O)c1cc(C3CC3)on1)C2 [compound 596, N-((1R,3r,5S)-8-((2-((2-aminoethyl)amino)ethyl)sulfonyl)-8-azabicyclo[3.2.1]octan-3-yl)-5-cyclopropylisoxazole-3-carboxamide]
SMYD3 [1]
  IC50: 12.8 nM
SMYD3 [2]
  IC50: 379 nM

## O=C(N[C@H]1C[C@H]2CC[C@@H](C1)N2S(=O)(=O)CCCN1CCCC1)c1cc(C2CC2)on1 [compound 597, 5-cyclopropyl-N-((1R,3r,5S)-8-((3-(pyrrolidin-1-yl)propyl)sulfonyl)-8-azabicyclo[3.2.1]octan-3-yl)isoxazole-3-carboxamide]
SMYD3 [1]
  IC50: 12.9 nM
SMYD3 [2]
  IC50: 217 nM

## CN(CCN)CCS(=O)(=O)N1[C@@H]2CC[C@H]1C[C@@H](NC(=O)c1cc(C3CC3)on1)C2 [compound 598, N-((1R,3r,5S)-8-((2-((2-aminoethyl)(methyl)amino)ethyl)sulfonyl)-8-azabicyclo[3.2.1]octan-3-yl)-5-cyclopropylisoxazole-3-carboxamide]
SMYD3 [1]
  IC50: 13.1 nM
SMYD3 [2]
  IC50: 431 nM

## CN(C)CCNCCS(=O)(=O)N1[C@@H]2CC[C@H]1C[C@@H](NC(=O)c1cc(C3CC3)on1)C2 [compound 599, 5-cyclopropyl-N-((1R,3r,5S)-8-((2-((2-(dimethylamino)ethyl)amino)ethyl)sulfonyl)-8-azabicyclo[3.2.1]octan-3-yl)isoxazole-3-carboxamide]
SMYD3 [1]
  IC50: 13.5 nM
SMYD3 [2]
  IC50: 213 nM

## CC1(C)CN(S(=O)(=O)N2[C@@H]3CC[C@H]2C[C@@H](NC(=O)c2cc(C4CC4)on2)C3)CCN1 [compound 600, 5-cyclopropyl-N-((1R,3r,5S)-8-((3,3-dimethylpiperazin-1-yl)sulfonyl)-8-azabicyclo[3.2.1]octan-3-yl)isoxazole-3-carboxamide]
SMYD3 [1]
  IC50: 13.5 nM
SMYD3 [2]
  IC50: 118 nM

## C[C@H]1CN(S(=O)(=O)CCCN)[C@@H](C)C[C@H]1NC(=O)c1cc(C2CC2)on1 [compound 601, N-((2S,4R,5S)-1-((3-aminopropyl)sulfonyl)-2,5-dimethylpiperidin-4-yl)-5-cyclopropylisoxazole-3-carboxamide]
SMYD3 [1]
  IC50: 14.3 nM
SMYD3 [2]
  IC50: 333 nM

## O=C(N[C@H]1C[C@H]2CC[C@@H](C1)N2S(=O)(=O)N1C2CCC1CNC2)c1cc(C2CC2)on1 [compound 602, N-((1R,3r,5S)-8-((3,8-diazabicyclo[3.2.1]octan-8-yl)sulfonyl)-8-azabicyclo[3.2.1]octan-3-yl)-5-cyclopropylisoxazole-3-carboxamide]
SMYD3 [1]
  IC50: 14.5 nM
SMYD3 [2]
  IC50: 132 nM

## CN(C)CCN(C)CCS(=O)(=O)N1[C@@H]2CC[C@H]1C[C@@H](NC(=O)c1cc(C3CC3)on1)C2 [compound 603, 5-cyclopropyl-N-((1R,3r,5S)-8-((2-((2-(dimethylamino)ethyl)(methyl)amino)ethyl)sulfonyl)-8-azabicyclo[3.2.1]octan-3-yl)isoxazole-3-carboxamide]
SMYD3 [1]
  IC50: 14.7 nM
SMYD3 [2]
  IC50: 239 nM

## COCCNCCCS(=O)(=O)N1[C@@H]2CC[C@H]1C[C@@H](NC(=O)c1cc(C3CC3)on1)C2 [compound 604, 5-cyclopropyl-N-((1R,3r,5S)-8-((3-((2-methoxyethyl)amino)propyl)sulfonyl)-8-azabicyclo[3.2.1]octan-3-yl)isoxazole-3-carboxamide]
SMYD3 [1]
  IC50: 16.2 nM
SMYD3 [2]
  IC50: 200 nM

## CNCCNCCS(=O)(=O)N1[C@@H]2CC[C@H]1C[C@@H](NC(=O)c1cc(C3CC3)on1)C2 [compound 605, 5-cyclopropyl-N-((1R,3r,5S)-8-((2-((2-(methylamino)ethyl)amino)ethyl)sulfonyl)-8-azabicyclo[3.2.1]octan-3-yl)isoxazole-3-carboxamide]
SMYD3 [1]
  IC50: 17.5 nM
SMYD3 [2]
  IC50: 302 nM

## CN1CCC(N(C)S(=O)(=O)N2[C@@H]3CC[C@H]2C[C@@H](NC(=O)c2cc(C4CC4)on2)C3)CC1 [compound 606, 5-cyclopropyl-N-((1R,3r,5S)-8-(N-methyl-N-(1-methylpiperidin-4-yl)sulfamoyl)-8-azabicyclo[3.2.1]octan-3-yl)isoxazole-3-carboxamide]
SMYD3 [1]
  IC50: 17.7 nM
SMYD3 [2]
  IC50: 235 nM
